Legend:
[1] = system: gilts; assay: Extra vitamin A fed to gilts prior to estrus initiation; format: in vivo; conditions: extra vitamin A in addition to the diet, no lactic acid
Source text: Therefore, the inventors speculated that the lactic acid may be beneficial to the puberty onset and estrus of the gilts.

[2] = system: sheep; conditions: 50000 IU per day, continuously fed by 50 days; cited from earlier work
[3] = system: cows with reproductive disorders; conditions: vitamin A 50000 IU per day, alone or with carotene 200 mg per day; cited from earlier work

vitamin A
delayed estrus initiation or estrus disorder [1]: improve the delayed estrus initiation or estrus disorder in gilts to some extent | estrus rate [2]: no significantly affected | lambing rate [2]: significantly increased | conception rate [3]: significantly increased | estrogen level [3]: significantly increased | estrus ate [3]: not significantly affected | follicle size [3]: not significantly affected

— patent US12364671B1, “Methods of administering vitamin A and lactic acid to gilts” (CHINA AGRICULTURAL UNIVERSITY, priority 2024, dated 2025)
